Test results: patent publication US12649730B2 (MITOIMMUNE THERAPEUTICS INC., priority 2021, dated 2026)
“Also recorded” adds a separate entry of the source.

Assays:
Format in all cases: physicochemical
[1] = Stability testing of 5 crystalline forms over 8 weeks at harsh conditions (40° C., 75% relative humidity)
Experimental: Stability testing was carried out over 8 weeks at harsh conditions (40° C., 75%, relative humidity) on the 5 crystalline forms obtained in Example 3.

[2] = Water sorption and desorption study, DVS cycle; settings: 25° C.
Experimental: Using SMS DVS Advantage 1, 10 mg sample was placed in a mesh stainless steel basket. The overall test cycle comprises scanning two times (sorption and desorption) at 10% RH intervals in a 40 to 90% range (60 to 360 minutes for each humidity level) at a constant temperature (25° C.). Using SMS DVS Advantage 1, 10 mg of Crystalline Form A was placed in a mesh stainless steel basket. The overall test cycle comprises scanning two times (sorption and desorption) at 10% RH intervals in a 40 to 90% range (60 to 360 minutes for each humidity level) at a constant temperature (25° C.). Approximately 0.7% weight increase and absorption and loss relative to sorption level indicates a non-hygroscopic sample. FIG. 38 is an isotherm curve for Crystalline Form A (weight change % v. RH %), and a kinetic curve of weight change % v. time and relative humidity %.

[3] = Pressurization test for Crystalline Form A; settings: 3 minutes each at 2, 3 and 4 MPa
Experimental: 100 mg of Crystalline Form A was placed in a die cavity, then made into tablets by pressing for 3 minutes each at pressures of 2, 3 and 4 MPa using an upper punch.

[4] = Grinding test for Crystalline Form A
Experimental: 30 mg Crystalline Form A was manually ground for 5 minutes in a mortar and pestle. […] 30 mg of Crystalline Form A and […] of EtOH were placed in a mortar and pestle, and manually ground for 5 minutes. […] 30 mg of Crystalline Form A and […] of H2O were placed in a mortar and pestle, and manually ground for 5 minutes.

[5] = 40° C./75% RH, 1 week, listed as Crystalline Form XII
[6] = 40° C./75% RH, 2 weeks, listed as Crystalline Form XII
[7] = 40° C./75% RH, 8 weeks, listed as Crystalline Form XII
[8] = Initial, listed as Crystalline Form XII

SMILES | Assay ([1]; 40° C./75% RH, 1 week) [%] | Purity ([1]; 40° C./75% RH, 1 week) [%] | Assay ([1]; 40° C./75% RH, 2 weeks) [%] | Purity ([1]; 40° C./75% RH, 2 weeks) [%] | Assay ([1]; 40° C./75% RH, 4 weeks) [%] | Purity ([1]; 40° C./75% RH, 4 weeks) [%] | XRPD Patterns ([1]; 40° C./75% RH, 4 weeks) | Assay ([1]; 40° C./75% RH, 8 weeks) [%] | Purity ([1]; 40° C./75% RH, 8 weeks) [%] | Assay ([1]; Initial) [%] | Purity ([1]; Initial) [%] | XRPD Patterns ([1]; Initial) | XRPD Patterns ([1]; 40° C./75% RH, 1 week) | XRPD Patterns ([1]; 40° C./75% RH, 2 weeks) | XRPD Patterns ([1]; 40° C./75% RH, 8 weeks) | further results
O=S1(=O)CCN(Cc2cc(NC3CCOCC3)c3[nH]c(-c4ccccc4)cc3c2)CC1 [Crystalline Form XI, 5-[(1,1-dioxido-4-thiomorpholinyl)methyl]-2-phenyl-N-(tetrahydro-2H-pyran-4-yl)-1H-indol-7-amine] | 95.79 | 99.70 | 105.59 | 99.36 | 103.58 | 99.56 | Pattern A | 104.04 | 99.58 | 100.00 | 99.55 | Pattern XI |  |  |  | 
O=S1(=O)CCN(Cc2cc(NC3CCOCC3)c3[nH]c(-c4ccccc4)cc3c2)CC1 [Crystalline Form A, 5-[(1,1-dioxido-4-thiomorpholinyl)methyl]-2-phenyl-N-(tetrahydro-2H-pyran-4-yl)-1H-indol-7-amine] |  |  |  |  |  |  |  |  |  | 100.00 |  |  |  |  |  | Stability judged among the 5 crystalline forms ([1]; 40° C., 75% relative humidity, 8 weeks): most stable crystalline form; Assay [1, 5]: 101.17%; Purity [1, 5]: 99.19%; XRPD Patterns [1, 5]: Pattern A; Assay [1, 6]: 102.12%; Purity [1, 6]: 98.69%; XRPD Patterns [1, 6]: Pattern A; Assay [1, 7]: 102.17%; Purity [1, 7]: 99.88%; XRPD Patterns [1, 7]: Pattern A; Purity [1, 8]: 98.85%; XRPD Patterns [1, 8]: Pattern A; Hygroscopicity ([2]; DVS, 40 to 90% RH): non-hygroscopic; Weight increase (water sorption) ([2]; DVS, 40 to 90% RH): Approximately 0.7%; XRPD analysis after DVS ([2]; after DVS cycle): no change in crystalline form; XRPD analysis after pressing into tablets and grinding [3]: no changes; XRPD analysis after wet grinding in EtOH ([4]; manually ground 5 minutes in EtOH): no change; XRPD analysis after wet grinding in H2O ([4]; manually ground 5 minutes in H2O): no change; XRPD analysis after dry grinding ([4]; manually ground 5 minutes, mortar and pestle): no change
O=S1(=O)CCN(Cc2cc(NC3CCOCC3)c3[nH]c(-c4ccccc4)cc3c2)CC1 [Crystalline Form VIII, 5-[(1,1-dioxido-4-thiomorpholinyl)methyl]-2-phenyl-N-(tetrahydro-2H-pyran-4-yl)-1H-indol-7-amine] | 106.67 | 99.95 | 102.74 | 99.91 | 105.56 | 99.83 | Pattern A | 107.08 | 100.00 | 100.00 | 99.94 | Pattern VIII | Pattern A | Pattern A | converted into Crystalline Form XII; also recorded: Pattern A | 
O=S1(=O)CCN(Cc2cc(NC3CCOCC3)c3[nH]c(-c4ccccc4)cc3c2)CC1 [Crystalline Form IV, 5-[(1,1-dioxido-4-thiomorpholinyl)methyl]-2-phenyl-N-(tetrahydro-2H-pyran-4-yl)-1H-indol-7-amine] | 101.81 | 99.73 | 105.36 | 99.88 | 99.58 | 99.87 | Pattern A | 104.25 | 99.86 | 100.00 | 99.87 | Pattern IV | Pattern A | Pattern A | converted into Crystalline Form XII; also recorded: Pattern A | 
O=S1(=O)CCN(Cc2cc(NC3CCOCC3)c3[nH]c(-c4ccccc4)cc3c2)CC1 [Crystalline Form V, 5-[(1,1-dioxido-4-thiomorpholinyl)methyl]-2-phenyl-N-(tetrahydro-2H-pyran-4-yl)-1H-indol-7-amine] | 103.86 | 99.60 | 103.99 | 99.21 | 98.50 | 99.16 | Pattern A | 104.75 | 99.36 | 100.00 | 99.37 | Pattern V | Pattern A | Pattern A | converted into Crystalline Form XII; also recorded: Pattern A | 
